Test results: publication PMC9228270, “Design, Synthesis, In Silico Studies and Inhibitory Activity towards Bcr-Abl, BTK and FLT3-ITD of New 2,6,9-Trisubstituted Purine Derivatives as Potential Agents for the Treatment of Leukaemia” (Pharmaceutics, 2022)
Where “and” joins values, the source holds several entries; their conditions need not be identical. Equal values may be shown once. Read-outs that look alike come from different tables or passages of the source.

Columns and labels:
[1] = biological target: T1, BTK (Homo sapiens, UniProt Q06187); experiment: Recombinant kinase radioassay, BTK; type: biochemical
T1 construct: purchased ProQinase
T1 sequence (Q06187 whole entry): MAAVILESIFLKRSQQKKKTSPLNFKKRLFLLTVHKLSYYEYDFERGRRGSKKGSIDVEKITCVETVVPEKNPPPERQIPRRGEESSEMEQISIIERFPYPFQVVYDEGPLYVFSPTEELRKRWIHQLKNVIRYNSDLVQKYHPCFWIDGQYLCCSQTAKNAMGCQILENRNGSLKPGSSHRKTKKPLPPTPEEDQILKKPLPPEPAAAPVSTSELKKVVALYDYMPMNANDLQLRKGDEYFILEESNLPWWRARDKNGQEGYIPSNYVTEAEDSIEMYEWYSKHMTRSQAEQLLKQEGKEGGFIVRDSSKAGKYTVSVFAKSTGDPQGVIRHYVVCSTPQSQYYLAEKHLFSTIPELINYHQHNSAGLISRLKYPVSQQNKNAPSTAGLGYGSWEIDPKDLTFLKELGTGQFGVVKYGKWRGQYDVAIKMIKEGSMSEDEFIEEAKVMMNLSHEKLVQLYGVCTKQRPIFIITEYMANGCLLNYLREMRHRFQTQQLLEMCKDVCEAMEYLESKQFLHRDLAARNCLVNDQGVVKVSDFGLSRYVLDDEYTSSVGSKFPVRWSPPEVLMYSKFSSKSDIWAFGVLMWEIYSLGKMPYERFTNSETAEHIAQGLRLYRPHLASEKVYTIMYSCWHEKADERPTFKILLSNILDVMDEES
Experimental: (§1) Recombinant kinase inhibition was measured using standard radioassay. Bcr-Abl1 and Cdk-2/cyclin E kinases were produced in-house, FLT3-ITD and BTK were purchased from ProQinase. The kinases were assayed with suitable substrates (500 µM peptide […] for Abl, 1 mg/mL histone H1 for Cdk-2, 100 µM poly (Glu:Tyr; 4:1)) in the presence of ATP (1 µM for Bcr-Abl, 15 µM for Cdk-2 and BTK), 0.05 µCi [γ-^33P]ATP and the test compound in reaction buffer (60 mM HEPES-NaOH, pH 7.5, 3 mM MgCl2, 3 mM MnCl2, 3 µM Na orthovanadate, 1.2 mM DTT, 2.5 µg/50 µL PEG20.000). The reactions were stopped by adding 3% aq. H3PO4. P-81 phosphocellulose (Whatman) was used to separate phosphorylated substrates. Kinase activity was quantified using a FLA-7000 digital image analyser.

[2] = tested on: CEM; experiment: Cytotoxicity assay (resazurin), CEM; type: cell-based; details: Homo sapiens, CCRF-CEM, 72 h, three independent experiments, range 0.1 to 25 µM
Experimental: (§2) Cytotoxicity assays for the purines were quantified using the resazurin method, a dye to measure redox reactions occurring in the mitochondria of live cells. The cells were treated by tested compounds (in triplicate, six different doses) for 72 h.

[3] = biological target: T2, Cdk-2/cyclin E (Homo sapiens, UniProt P24941); experiment: Recombinant kinase radioassay, Cdk-2/cyclin E; type: biochemical; details: ATP 15 µM, at least three independent experiments, range 0.01–100 µM
T2 construct: made in house
Experimental: as §1

[4] = tested on: K562; experiment: Cytotoxicity assay (resazurin), K562; type: cell-based; details: Homo sapiens, 72 h, three independent experiments, range 0.1 to 25 µM
Experimental: as §2

[5] = biological target: Bcr-Abl1 (Homo sapiens, UniProt P00519); experiment: Recombinant kinase radioassay, Abl; type: biochemical; details: ATP 1 µM, at least three independent experiments, range 0.01–100 µM
Sequence of Bcr-Abl1 (P00519 27-1130): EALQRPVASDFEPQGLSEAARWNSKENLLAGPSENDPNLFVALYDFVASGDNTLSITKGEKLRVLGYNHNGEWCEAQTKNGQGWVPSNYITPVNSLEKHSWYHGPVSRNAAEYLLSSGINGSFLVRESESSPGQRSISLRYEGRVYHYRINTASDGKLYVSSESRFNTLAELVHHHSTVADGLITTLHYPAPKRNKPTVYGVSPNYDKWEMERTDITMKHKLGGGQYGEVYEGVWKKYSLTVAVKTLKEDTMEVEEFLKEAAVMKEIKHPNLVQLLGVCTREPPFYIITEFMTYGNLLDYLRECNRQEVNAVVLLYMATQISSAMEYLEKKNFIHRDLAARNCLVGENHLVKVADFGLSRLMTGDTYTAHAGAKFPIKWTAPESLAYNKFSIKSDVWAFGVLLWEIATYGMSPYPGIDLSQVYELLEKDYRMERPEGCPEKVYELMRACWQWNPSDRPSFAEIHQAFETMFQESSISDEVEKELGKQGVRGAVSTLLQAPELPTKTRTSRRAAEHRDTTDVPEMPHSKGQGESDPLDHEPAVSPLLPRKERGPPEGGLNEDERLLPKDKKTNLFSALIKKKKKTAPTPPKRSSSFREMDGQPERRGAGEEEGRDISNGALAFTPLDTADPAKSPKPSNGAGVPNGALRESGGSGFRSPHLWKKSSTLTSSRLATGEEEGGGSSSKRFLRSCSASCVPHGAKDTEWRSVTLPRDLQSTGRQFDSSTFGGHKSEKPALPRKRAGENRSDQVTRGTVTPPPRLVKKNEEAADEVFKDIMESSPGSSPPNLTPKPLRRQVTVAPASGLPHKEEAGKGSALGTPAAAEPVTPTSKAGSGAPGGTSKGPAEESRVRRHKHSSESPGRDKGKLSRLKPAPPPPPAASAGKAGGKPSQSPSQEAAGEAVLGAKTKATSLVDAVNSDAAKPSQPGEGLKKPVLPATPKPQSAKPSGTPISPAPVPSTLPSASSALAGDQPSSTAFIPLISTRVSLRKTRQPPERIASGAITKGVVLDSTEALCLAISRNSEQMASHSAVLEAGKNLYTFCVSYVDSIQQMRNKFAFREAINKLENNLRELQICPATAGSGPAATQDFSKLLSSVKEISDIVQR
Experimental: as §1

[6] = tested on: Ramos; experiment: Cytotoxicity assay (resazurin), Ramos; type: cell-based; details: Homo sapiens, 72 h, three independent experiments, range 0.1 to 25 µM
Experimental: as §2

[7] = biological target: T3, FLT3-ITD (Homo sapiens, UniProt P36888, ITD); experiment: Recombinant kinase radioassay, FLT3-ITD; type: biochemical
T3 sequence (P36888 27-993): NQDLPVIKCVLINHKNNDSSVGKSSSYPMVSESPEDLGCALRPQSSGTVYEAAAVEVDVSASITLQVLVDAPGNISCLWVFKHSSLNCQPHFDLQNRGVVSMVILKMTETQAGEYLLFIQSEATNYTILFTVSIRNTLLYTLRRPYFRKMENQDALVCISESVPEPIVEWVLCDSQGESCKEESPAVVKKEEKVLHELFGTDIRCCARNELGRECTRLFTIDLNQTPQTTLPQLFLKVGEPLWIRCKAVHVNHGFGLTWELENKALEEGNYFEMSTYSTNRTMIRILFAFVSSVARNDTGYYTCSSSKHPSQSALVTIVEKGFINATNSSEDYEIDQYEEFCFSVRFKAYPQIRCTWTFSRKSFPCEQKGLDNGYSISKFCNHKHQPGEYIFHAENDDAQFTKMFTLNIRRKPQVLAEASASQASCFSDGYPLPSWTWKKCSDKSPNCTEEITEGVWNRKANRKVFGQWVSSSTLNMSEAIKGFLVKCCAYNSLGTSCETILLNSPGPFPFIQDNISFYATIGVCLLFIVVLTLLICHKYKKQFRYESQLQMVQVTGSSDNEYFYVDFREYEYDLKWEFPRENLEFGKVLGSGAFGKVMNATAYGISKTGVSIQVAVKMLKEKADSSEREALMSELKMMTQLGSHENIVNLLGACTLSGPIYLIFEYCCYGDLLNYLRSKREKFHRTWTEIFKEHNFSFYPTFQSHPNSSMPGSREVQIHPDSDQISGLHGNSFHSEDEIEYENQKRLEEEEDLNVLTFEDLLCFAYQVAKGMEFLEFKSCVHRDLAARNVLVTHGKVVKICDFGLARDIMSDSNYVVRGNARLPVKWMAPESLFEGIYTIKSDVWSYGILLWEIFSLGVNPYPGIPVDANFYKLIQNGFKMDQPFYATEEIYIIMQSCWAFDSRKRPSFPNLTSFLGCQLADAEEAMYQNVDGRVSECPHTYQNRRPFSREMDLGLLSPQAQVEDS
Experimental: as §1

[8] = tested on: MV4-11; experiment: Cytotoxicity assay (resazurin), MV4-11; type: cell-based; details: Homo sapiens, 72 h, three independent experiments, range 0.1 to 25 µM
Experimental: as §2

[9] = tested on: HL-60; experiment: Cytotoxicity assay (resazurin), HL-60; type: cell-based; details: Homo sapiens, 72 h, three independent experiments, range 0.1 to 25 µM
Experimental: as §2

[10] = recombinant kinase, radioassay, ATP 15 µM, at least three independent experiments, range 0.01–100 µM, read-out: IC50 BTK
[11] = recombinant kinase, radioassay, at least three independent experiments, range 0.01–100 µM, read-out: IC50 FLT3-ITD

SMILES	IC50 [1, 10]	IC50 [3] [µM]	IC50 [5] [µM]	IC50 [7, 11] [µM]	melting point [°C]	IC50 ([1]; -log IC50 in molar concentration, Table S3, read-out: Experimental pIC50, CoMFA BTK (converted)) [µM]	IC50 ([7]; -log IC50 in molar concentration, Table S3, read-out: Experimental pIC50, CoMFA FLT3 (converted)) [µM]	GI50 [2] [µM]	GI50 [4] [µM]	GI50 [6] [µM]	GI50 [8] [µM]	GI50 [9] [µM]
CCCCCn1cnc2c(Nc3cccc(F)c3)nc(Nc3ccc(N4CCN(C)CC4)cc3)nc21 [Compound 5e, N^6-(3-Fluorophenyl)-N^2-(4-(4-methylpiperazin-1-yl)phenyl)-9-pentyl-9H-purine-2,6-diamine]	< 0.58 µM and 0.36 µM	19 ± 8.98	0.65 ± 0.07	0.5	147.1 to 149.3			19 ± 3.89	2.14 ± 0.8	11.6 ± 1.46	1.31 ± 0.71	1.31
CN1CCN(c2ccc(Nc3nc(Nc4ccccc4)c4ccn(CC5CC5)c4n3)cc2)CC1 [Compound 12, 7-(Cyclopropylmethyl)-N^2-(4-(4-Methylpiperazin-1-yl)Phenyl)-N^4-Phenyl-7H-pyrrolo[2,3-d]Pyrimidine-2,4-Diamine]	> 20 µM	46.2 ± 1.49	62.3 ± 12.1	> 20	102.3 to 105.5	2.39	1.54	15.5 ± 1.46	6.38 ± 1.14	12.8 ± 0.61	8.28 ± 2.9	3.58 ± 0.65
CC(C)CCn1cnc2c(Nc3ccccc3)nc(Nc3ccc(N4CCN(C)CC4)cc3)nc21 [Compound 5a, 9-Isopentyl-N^2-(4-(4-methylpiperazin-1-yl)phenyl)-N^6-phenyl-9H-purine-2,6-diamine]	2.22 ± 0.96 µM	22.1 ± 0.38	1.78 ± 0.2	0.23	153.1 to 155.2			16.4 ± 2.41	8.93 ± 5.52	10.1 ± 2.98	0.73 ± 0.25	1.52 ± 0.61
CN1CCN(c2ccc(Nc3nc(Nc4ccc(Cl)c(F)c4)c4ncn(CC5CC5)c4n3)cc2)CC1 [Compound 4l, N^6-(4-Chloro-3-fluorophenyl)-9-(cyclopropylmethyl)-N^2-(4-(4-methylpiperazin-1-yl)phenyl)-9H-purine-2,6-diamine]	0.88 ± 0.19 µM	26.6 ± 3.37	0.2 ± 0.05	1.03	149 to 150			15.4 ± 0.55	3.45 ± 1.61	11.2 ± 2.64	2.56 ± 0.64	3.22 ± 0.74
CN1CCN(c2ccc(Nc3nc(Nc4ccc(F)c(Cl)c4)c4ncn(CC5CC5)c4n3)cc2)CC1 [Compound 4m, N^6-(3-Chloro-4-fluorophenyl)-9-(cyclopropylmethyl)-N^2-(4-(4-methylpiperazin-1-yl)phenyl)-9H-purine-2,6-diamine]	2.39 ± 0.43 µM	10.8 ± 3.84	0.27 ± 0.05	1.54	153 to 155			13.3 ± 1.58	2.57 ± 0.52	7.52 ± 0.41	1.88 ± 0.06	0.86 ± 0.11

Further molecules by falling IC50 [3], results first:

IC50 [1, 10]	IC50 [3] [µM]	IC50 [5] [µM]	IC50 [7, 11] [µM]	melting point [°C]	IC50 ([1]; -log IC50 in molar concentration, Table S3, read-out: Experimental pIC50, CoMFA BTK (converted)) [µM]	IC50 ([7]; -log IC50 in molar concentration, Table S3, read-out: Experimental pIC50, CoMFA FLT3 (converted)) [µM]	SMILES	GI50 [2] [µM]	GI50 [4] [µM]	GI50 [6] [µM]	GI50 [8] [µM]	GI50 [9] [µM]
4.12 ± 0.9 µM	47.7 ± 19.4	0.42 ± 0.1	2.32	161 to 162			CN1CCN(c2ccc(Nc3nc(Nc4cccc(OC(F)(F)F)c4)c4ncn(CC5CC5)c4n3)cc2)CC1 [Compound 4e, 9-(Cyclopropylmethyl)-N^2-(4-(4-methylpiperazin-1-yl)phenyl)-N^6-(3-(trifluoromethoxy)phenyl)-9H-purine-2,6-diamine]	19.5 ± 0.61	5.18 ± 1.68	12.84 ± 0.03	2.88 ± 0.01	1.4 ± 0.13
6.01 ± 0.72 µM	31.4 ± 3.18	1.21 ± 0.11	1.95	164 to 165			CN1CCN(C(=O)c2ccc(Nc3nc(Nc4ccccc4)c4ncn(CC5CC5)c4n3)cc2)CC1 [Compound 8a, (4-((9-(Cyclopropylmethyl)-6-(phenylamino)-9H-purin-2-yl)amino)phenyl)(4-methylpiperazin-1-yl)methanone]	> 25	8.91 ± 1.64	16.6 ± 0.67	1.24 ± 0.21	6.64 ± 1.42
0.97 ± 0.22 µM	25.6 ± 3.27	> 100	> 20	181.2 to 183.6			CCCCCCCCn1cnc2c(Nc3cccc(F)c3)nc(Nc3ccc(N4CCN(C)CC4)cc3)nc21 [Compound 5k, N^6-(3-Fluorophenyl)-N^2-(4-(4-methylpiperazin-1-yl)phenyl)-9-octyl-9H-purine-2,6-diamine]	21.3 ± 0.31	10 ± 6.31	15.7 ± 0.37	12.4 ± 3.93	2.16 ± 0.48
2.73 ± 0.17 µM	14.2 ± 1.24	0.94 ± 0.22	1.81	142 to 143			CN1CCN(C(=O)c2ccc(Nc3nc(Nc4ccc(F)c(F)c4)c4ncn(CC5CC5)c4n3)cc2)CC1 [Compound 8c, (4-((9-(Cyclopropylmethyl)-6-((3,4-difluorophenyl)amino)-9H-purin-2-yl)amino)phenyl)(4-methylpiperazin-1-yl)methanone]	20.7 ± 4.07	6.07 ± 0.08	14.69 ± 0.02	1.52 ± 0.31	2.39 ± 0.89
3.9 ± 0.05 µM	12.9 ± 1.7	0.07 ± 0.01	2.53	132 to 133			CN1CCN(c2ccc(Nc3nc(Nc4ccc(Cl)c(Cl)c4)c4ncn(CC5CC5)c4n3)cc2)CC1 [Compound 4n, 9-(Cyclopropylmethyl)-N^6-(3,4-dichlorophenyl)-N^2-(4-(4-methylpiperazin-1-yl)phenyl)-9H-purine-2,6-diamine]	17.54 ± 0.08	5.54 ± 1.56	8.02 ± 1.3	4.81 ± 1.54	1.52 ± 0.34
